The values that follow come from PubChem BioAssay (NCI).

Test systems include 786-0 renal; ACHN renal; COLO 205 colon; HCT-15 colon; HL-60(TB) leukemia; M14 melanoma; MOLT-4 leukemia; NCI-H226 lung; OVCAR-3 ovarian; SF-539 CNS; TK-10 renal.
What all share (assay): NCI tumour cell line growth inhibition, 48 h

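Each compound was tested at five concentrations against cells in 96-well plates for 48 hours. TGI: total growth inhibition.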

On to `Cc1nn(C(=O)c2ccc(Cl)cc2)c2c1C(c1ccc(Cl)cc1)SC(N)=N2` (configuration not stated), for which the TGI in the test on 786-0 renal, in the test on ACHN renal, with COLO 205 colon, in the test on HCT-15 colon, with HL-60(TB) leukemia and with M14 melanoma was more than 10 µM each time. Besides, the TGI with MOLT-4 leukemia, in the test on NCI-H226 lung, in the test with OVCAR-3 ovarian, in the test on SF-539 CNS and in the test on TK-10 renal was more than 10 µM each time.

Regarding `CC(=O)OC(C)c1cc2c(s1)C(=O)c1ccsc1C2=O` (configuration not stated), the TGI worked out at 0.978 µM with 786-0 renal; 0.31 µM with ACHN renal; 2.61 µM with COLO 205 colon; 0.272 µM in the test with HCT-15 colon; 0.0364 µM in the test on HL-60(TB) leukemia; 0.604 µM with M14 melanoma. In addition, the TGI was determined as 0.684 µM in the test with MOLT-4 leukemia; 3.79 µM in the test on NCI-H226 lung; 0.192 µM in the test on OVCAR-3 ovarian; 0.182 µM in the test with SF-539 CNS; 2.49 µM in the test with TK-10 renal.

On to `Nc1ncc2c(n1)-c1ccccc1OC2N1CCOCC1` (configuration not stated), for which the TGI in the test with 786-0 renal, in the test with ACHN renal, in the test with COLO 205 colon, with HCT-15 colon, in the test on HL-60(TB) leukemia and with M14 melanoma was more than 100 µM each time. The TGI in the test on MOLT-4 leukemia, in the test with NCI-H226 lung, in the test with OVCAR-3 ovarian, with SF-539 CNS and in the test on TK-10 renal was more than 100 µM each time.

Turning to `COc1ccc(C2=NN(C(=O)c3ccc(Cl)cc3)C(O)(c3cc(F)c(Cl)cc3Cl)C2)cc1` (configuration not stated), the TGI with 786-0 renal, with ACHN renal, with COLO 205 colon, with HCT-15 colon, in the test with HL-60(TB) leukemia and in the test with M14 melanoma was more than 100 µM throughout. For the same molecule, the TGI in the test on MOLT-4 leukemia, with NCI-H226 lung, in the test on OVCAR-3 ovarian, with SF-539 CNS and in the test with TK-10 renal was more than 100 µM each time.

Turning to `CN1N=C(c2ccccc2)c2cc(Cl)ccc2N=C1N/N=C/c1ccc(N(C)C)cc1`, the TGI in the test with 786-0 renal, in the test on ACHN renal, in the test with COLO 205 colon, in the test on HCT-15 colon, in the test with HL-60(TB) leukemia and in the test with M14 melanoma was more than 100 µM in each case. The TGI in the test on MOLT-4 leukemia, with NCI-H226 lung, in the test on OVCAR-3 ovarian, with SF-539 CNS and in the test on TK-10 renal was more than 100 µM in each case.

`COC(=O)[C@@H]1[C@H]2CC[C@]3(C)[C@@H](OC(C)=O)CC[C@H]3[C@@H]2CC[C@H]1C(C)=O`: the TGI with 786-0 renal, with ACHN renal, in the test on COLO 205 colon, in the test with HCT-15 colon, in the test with HL-60(TB) leukemia and in the test with M14 melanoma was more than 100 µM in each case. Besides, the TGI in the test on MOLT-4 leukemia, in the test with NCI-H226 lung, in the test with OVCAR-3 ovarian, in the test on SF-539 CNS and in the test on TK-10 renal was more than 100 µM in each case.

Regarding `CC(=O)OCC1=CC2CCC3C(C)(CCC[C@]3(C)COC(C)=O)C23CC[C@H]1C3` (some centres not stated), the TGI in the test with 786-0 renal is more than 100 µM; in the test on ACHN renal it was more than 100 µM; in the test on COLO 205 colon, 49.3 µM; in the test with HCT-15 colon, more than 100 µM; in the test with HL-60(TB) leukemia, 53.6 µM; in the test on M14 melanoma it was more than 100 µM. In addition, the TGI with MOLT-4 leukemia was 51.5 µM; in the test on NCI-H226 lung it was more than 100 µM; in the test with OVCAR-3 ovarian, more than 100 µM; in the test with SF-539 CNS it was more than 100 µM; in the test with TK-10 renal, more than 100 µM.

For the molecule `Oc1cccc2ccc(Br)nc12`, the TGI in the test with 786-0 renal, with ACHN renal, in the test on COLO 205 colon, with HCT-15 colon, with HL-60(TB) leukemia and with M14 melanoma was more than 100 µM throughout. Also, the TGI in the test with MOLT-4 leukemia, in the test on NCI-H226 lung, with OVCAR-3 ovarian, with SF-539 CNS and in the test on TK-10 renal was more than 100 µM throughout.

On to `O=Cc1ccc(-c2ccc(S(=O)(=O)O)cc2)o1`, for which the TGI in the test with 786-0 renal, with ACHN renal, with COLO 205 colon, with HCT-15 colon, in the test on HL-60(TB) leukemia and in the test with M14 melanoma was more than 100 µM in each case. Besides, the TGI with MOLT-4 leukemia, in the test on NCI-H226 lung, in the test with OVCAR-3 ovarian, with SF-539 CNS and in the test on TK-10 renal was more than 100 µM in each case.

As to `O=C(NCc1ccccc1)C1C(=O)C(=O)N(Cc2ccccc2)C1=O` (configuration not stated), the TGI in the test with 786-0 renal, in the test with ACHN renal, in the test with COLO 205 colon, with HCT-15 colon, with HL-60(TB) leukemia and in the test with M14 melanoma was more than 100 µM throughout. Besides, the TGI in the test with MOLT-4 leukemia, with NCI-H226 lung, in the test with OVCAR-3 ovarian, with SF-539 CNS and with TK-10 renal was more than 100 µM in each case.

With `Cc1cnc2[nH]c(-c3ccc(Cl)cc3)cc(=O)c2c1`, the TGI in the test on 786-0 renal was more than 100 µM; in the test with ACHN renal, more than 100 µM; in the test on COLO 205 colon, more than 100 µM; in the test with HCT-15 colon, more than 40.8 µM; in the test with HL-60(TB) leukemia, more than 23.3 µM; in the test on M14 melanoma, more than 100 µM. Further, the TGI with MOLT-4 leukemia is more than 53.7 µM; in the test on NCI-H226 lung, more than 100 µM; in the test on OVCAR-3 ovarian, more than 24.4 µM; with SF-539 CNS, 6.81 µM; in the test with TK-10 renal, more than 100 µM.

For the molecule `COC(=O)CNC(=O)CSc1nnc(COc2ccc(Cl)cc2)n1-c1ccccc1`, the TGI in the test on 786-0 renal is 31.4 µM; with ACHN renal, 55 µM; in the test on COLO 205 colon, more than 100 µM; in the test on HCT-15 colon, more than 100 µM; with HL-60(TB) leukemia, more than 100 µM; in the test with M14 melanoma it was more than 100 µM. The TGI with MOLT-4 leukemia was more than 100 µM; with NCI-H226 lung it was more than 100 µM; with OVCAR-3 ovarian, more than 100 µM; with SF-539 CNS, more than 100 µM; with TK-10 renal, 46.3 µM.

With `O=C(O)CCC(NC(=O)c1ccc(CNc2nc3cc(C(F)(F)F)ccc3nc2C(=O)O)cc1)C(=O)O` (configuration not stated), the TGI in the test on 786-0 renal, in the test on ACHN renal, with COLO 205 colon, in the test with HCT-15 colon, in the test on HL-60(TB) leukemia and in the test with M14 melanoma was more than 100 µM throughout. Further, the TGI in the test on MOLT-4 leukemia, with NCI-H226 lung, with OVCAR-3 ovarian, in the test on SF-539 CNS and in the test with TK-10 renal was more than 100 µM each time.

For the molecule `COc1cc2cnc3c4cc(OC)c(OC(C)C)cc4ccc3c2cc1OC`, the TGI with 786-0 renal, in the test with ACHN renal, in the test on COLO 205 colon, in the test on HCT-15 colon, in the test with HL-60(TB) leukemia and with M14 melanoma was more than 100 µM throughout. The TGI in the test on MOLT-4 leukemia, in the test with NCI-H226 lung, in the test on OVCAR-3 ovarian, with SF-539 CNS and with TK-10 renal was more than 100 µM throughout.

Regarding `COC(=O)/C(=N\N)C(C(=O)C(=O)Nc1nc(=S)[nH][nH]1)c1nc2ccc([N+](=O)[O-])cc2[nH]c1=O` (configuration not stated), the TGI in the test on 786-0 renal, in the test on ACHN renal, in the test on COLO 205 colon, in the test on HCT-15 colon, in the test on HL-60(TB) leukemia and in the test with M14 melanoma was more than 100 µM each time. The TGI with MOLT-4 leukemia, in the test with NCI-H226 lung, in the test with OVCAR-3 ovarian, with SF-539 CNS and with TK-10 renal was more than 100 µM throughout.

For `CCC(=O)CCC1=Nc2nnc(CCCCc3nnc4n3C(=O)C(CCC(=O)CC)=N4)n2C1=O`, the TGI in the test on 786-0 renal, in the test with ACHN renal, in the test on COLO 205 colon, in the test with HCT-15 colon, in the test with HL-60(TB) leukemia and with M14 melanoma was more than 100 µM in each case. The TGI with MOLT-4 leukemia, in the test with NCI-H226 lung, in the test on OVCAR-3 ovarian, in the test on SF-539 CNS and with TK-10 renal was more than 100 µM throughout.

For `CCc1cccc(NC(=O)c2cc(/C=C/c3ccccc3)[nH]c(=S)n2)c1`, the TGI with 786-0 renal, in the test on ACHN renal, in the test on COLO 205 colon, with HCT-15 colon, with HL-60(TB) leukemia and with M14 melanoma was more than 100 µM in each case. For the same molecule, the TGI in the test on MOLT-4 leukemia, in the test on NCI-H226 lung, in the test with OVCAR-3 ovarian, with SF-539 CNS and with TK-10 renal was more than 100 µM in each case.
